The source of these data is PMC5062470, “The mGluR2 positive allosteric modulator, SAR218645, improves memory and attention deficits in translational models of cognitive symptoms associated with schizophrenia” (Scientific Reports, 2016).

As usually defined, the Ki is a measure of affinity in units of concentration, obtained from inhibition or displacement. Higher therefore signals a looser hold on the target.

Data set [1] deals with CD-1 mice. The experiment in a line: DOI-induced head-twitch behaviors. Particulars: po; DOI 1 mg/kg ip. It is filed as in vivo. The protocol:
Male CD-1 mice weighing 25–30 g at the time of testing were used. Animals were brought into the testing area and allowed at least 30 min to acclimatize. The behavior observation was conducted in a wire test chamber measuring 10 cm^3. SAR218645 or the selective 5-HT2A receptor antagonist, volinanserin, was administered po at various times before administration of DOI. DOI was injected ip at a dose of 1 mg/kg. Five minutes later behavioral observation commenced. A trained (blinded) observer continuously watched the mice for 20 min and noted the number of DOI-induced head twitches during this time. The number of head twitches per group was averaged and SAR218645 or volinanserin plus DOI were compared to DOI alone. Three to eight animals per group were used.

A further data set has as its system OF1 mice. The experiment in a line: Maximal electroshock seizure (MES) test. Particulars: 10 mg/kg ip; vehicle 100. It is filed as in vivo. On the procedure: SAR218645 (30 mg/kg, po) and the reference anticonvulsant agent, diazepam (10 mg/kg), were administered ip to OF1 mice (12–14 g) 30 min prior to test, respectively. An electrical stimulus (60 Hz, 0.8 ms rectangular pulse, 0.4 s duration, 50 mA) was applied to both corneas. The occurrence of tonic extension of the hindlimbs was noted.
Background: Protection in the maximal electroshock model is a classic sign of anticonvulsant action.

The target of the next data set is T1, rat mGluR3 (Rattus norvegicus, UniProt P31422).
T1 construct: expressed in transfected cells; host or cells: inducible HEK-293 cell line (membranes)
T1 sequence (P31422 23-879): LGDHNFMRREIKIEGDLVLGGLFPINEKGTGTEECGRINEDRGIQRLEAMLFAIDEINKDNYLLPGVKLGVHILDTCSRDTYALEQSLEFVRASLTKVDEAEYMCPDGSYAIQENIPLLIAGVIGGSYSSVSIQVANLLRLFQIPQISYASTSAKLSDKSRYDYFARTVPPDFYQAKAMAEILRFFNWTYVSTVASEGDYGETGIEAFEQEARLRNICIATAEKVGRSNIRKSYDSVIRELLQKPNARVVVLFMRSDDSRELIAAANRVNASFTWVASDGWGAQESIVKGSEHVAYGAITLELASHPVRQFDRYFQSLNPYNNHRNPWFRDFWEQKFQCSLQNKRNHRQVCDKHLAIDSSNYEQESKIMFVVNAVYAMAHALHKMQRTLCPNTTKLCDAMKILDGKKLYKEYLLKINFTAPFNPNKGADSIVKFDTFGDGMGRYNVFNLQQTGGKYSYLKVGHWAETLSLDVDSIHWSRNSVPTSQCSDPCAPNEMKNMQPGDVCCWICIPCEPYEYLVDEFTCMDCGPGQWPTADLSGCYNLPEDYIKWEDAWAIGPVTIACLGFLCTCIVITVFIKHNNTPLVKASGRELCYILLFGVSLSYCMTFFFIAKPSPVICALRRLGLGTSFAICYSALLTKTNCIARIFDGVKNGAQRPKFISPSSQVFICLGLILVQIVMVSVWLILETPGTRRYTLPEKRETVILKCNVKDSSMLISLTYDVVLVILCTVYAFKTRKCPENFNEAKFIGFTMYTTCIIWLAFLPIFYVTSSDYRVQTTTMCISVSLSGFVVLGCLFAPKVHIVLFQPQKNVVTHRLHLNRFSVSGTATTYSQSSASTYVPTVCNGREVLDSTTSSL
The experiment in a line: [3H]LY341495 binding to membranes. The following applies: Fig. 5C. The protocol:
Membranes were prepared from an inducible HEK-293 cell line expressing rat mGluR2 or mGluR3. Binding assay was adapted from Johnson et al.[29]. Briefly, [^3H]LY341495 (1.4 nM) was evaluated for binding in the presence or in the absence of orthosteric and allosteric ligands. […] Addition of 5–10 μg membrane protein initiated the incubation. After 45 min at room temperature, the incubation was terminated by rapid filtration followed by scintillation counting. Ki’s were calculated using 4-parameter curve fitting.

A further data set deals with rat mGluR2 (Rattus norvegicus, UniProt P31421). The experiment in a line: [3H]LY341495 binding to membranes. More on the design: expressed in transfected cells; host or cells: inducible HEK-293 cell line (membranes). On the procedure: Binding assay was adapted from Johnson et al.[29]. […] Addition of 5–10 μg membrane protein initiated the incubation. After 45 min at room temperature, the incubation was terminated by rapid filtration followed by scintillation counting. Ki’s were calculated using 4-parameter curve fitting.
rat mGluR2, sequence (P31421 19-872): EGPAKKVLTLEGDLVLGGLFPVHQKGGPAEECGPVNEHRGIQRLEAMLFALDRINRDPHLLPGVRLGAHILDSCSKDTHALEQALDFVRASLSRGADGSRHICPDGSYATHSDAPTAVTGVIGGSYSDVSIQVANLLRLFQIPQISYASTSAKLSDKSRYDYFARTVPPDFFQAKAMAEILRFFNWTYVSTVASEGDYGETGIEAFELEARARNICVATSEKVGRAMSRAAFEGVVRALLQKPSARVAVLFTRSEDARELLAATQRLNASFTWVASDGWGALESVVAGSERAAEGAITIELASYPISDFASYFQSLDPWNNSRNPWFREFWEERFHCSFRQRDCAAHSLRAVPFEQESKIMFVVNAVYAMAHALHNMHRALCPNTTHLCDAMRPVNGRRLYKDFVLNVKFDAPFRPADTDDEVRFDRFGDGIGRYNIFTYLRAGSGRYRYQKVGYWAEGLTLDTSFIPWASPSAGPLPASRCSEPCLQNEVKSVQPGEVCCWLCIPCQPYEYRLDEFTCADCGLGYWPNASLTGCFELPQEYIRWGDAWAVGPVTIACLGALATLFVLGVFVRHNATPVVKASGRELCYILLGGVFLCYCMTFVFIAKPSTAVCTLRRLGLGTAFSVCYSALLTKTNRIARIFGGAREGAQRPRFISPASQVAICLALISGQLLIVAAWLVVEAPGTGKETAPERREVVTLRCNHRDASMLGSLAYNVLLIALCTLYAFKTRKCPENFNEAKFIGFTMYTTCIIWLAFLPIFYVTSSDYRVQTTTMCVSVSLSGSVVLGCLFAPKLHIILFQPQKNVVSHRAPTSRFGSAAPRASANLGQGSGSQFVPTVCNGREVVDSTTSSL

The test system of another data set is Sprague-Dawley rats. In words: Amphetamine-induced disruption of auditory evoked potentials (AEP). Particulars: 3 mg/kg po; amphetamine 3 mg/kg. It is filed as in vivo. An excerpt:
All recordings were made using Spike2 software (Cambridge Electronic Design, Cambridge, UK) running on a Windows PC connected to a 1401 interface (Cambridge Electronic Design, Cambridge, UK). EEG recordings were created by connecting the skull plug to an amplifying head stage (AI 1401, Axon Instruments, Union City, CA, USA), via a 6-channel commutator and cable (Plastics One, Roanoke, VA, USA). The signal was then further amplified with a multichannel amplifier (Cyberamp 380, Axon Instruments, Union City, CA, USA). Auditory stimuli were controlled by the interface via an eight channel power amplifier (SA8, Tucker Davis Technologies, Alachua, FL) connected to a patch panel (PP16, Tucker Davis Technologies), which was connected to speakers located above each cage (TDT Magnetic Speakers, Tucker Davis Technologies). During recording sessions, animals were placed inside standard mouse cages (30 × 15 × 15 cm) and rigged so that the six channel cables could connect with the rest of the apparatus outside of the cage.
Male Sprague-Dawley rats (150–180 g at arrival) were anesthetized with 3% isoflurane and their scalp was shaved and prepared for surgery. An incision was made in the scalp and the skin was retracted to allow direct contact with the skull surface. The skull was cleaned with a dry Q-tip and five holes were drilled through the skull. Three holes were drilled at coordinates AP + 1 mm, ML + 1 mm (reference); AP−4 mm, ML ± 4 mm (leads 1 and 2) relative to bregma, while an additional hole was drilled in the frontal area (ground) and another hole was drilled at the midpoint between the anterior and posterior coordinate (anchor). […]
AEP data analysis: Data were collected and analyzed using Spike2 software (CED Software, Cambridge, UK). […] Then a horizontal cursor was placed at the highest and lowest (peak and trough) point of the P1/N1 wave, for both the wave occurring to the first tone (S1) and to the second tone (S2), and the value was recorded into an Excel spreadsheet. […]

The target in a further data set is T2, native mouse mGluR2 (Mus musculus, UniProt Q14BI2).
T2 construct: SAR218645 acted as a pure mGluR2 PAM at native mouse mGluR2 in the cortex; from tissue; host or cells: mouse cortex membranes
T2 sequence (Q14BI2 19-872): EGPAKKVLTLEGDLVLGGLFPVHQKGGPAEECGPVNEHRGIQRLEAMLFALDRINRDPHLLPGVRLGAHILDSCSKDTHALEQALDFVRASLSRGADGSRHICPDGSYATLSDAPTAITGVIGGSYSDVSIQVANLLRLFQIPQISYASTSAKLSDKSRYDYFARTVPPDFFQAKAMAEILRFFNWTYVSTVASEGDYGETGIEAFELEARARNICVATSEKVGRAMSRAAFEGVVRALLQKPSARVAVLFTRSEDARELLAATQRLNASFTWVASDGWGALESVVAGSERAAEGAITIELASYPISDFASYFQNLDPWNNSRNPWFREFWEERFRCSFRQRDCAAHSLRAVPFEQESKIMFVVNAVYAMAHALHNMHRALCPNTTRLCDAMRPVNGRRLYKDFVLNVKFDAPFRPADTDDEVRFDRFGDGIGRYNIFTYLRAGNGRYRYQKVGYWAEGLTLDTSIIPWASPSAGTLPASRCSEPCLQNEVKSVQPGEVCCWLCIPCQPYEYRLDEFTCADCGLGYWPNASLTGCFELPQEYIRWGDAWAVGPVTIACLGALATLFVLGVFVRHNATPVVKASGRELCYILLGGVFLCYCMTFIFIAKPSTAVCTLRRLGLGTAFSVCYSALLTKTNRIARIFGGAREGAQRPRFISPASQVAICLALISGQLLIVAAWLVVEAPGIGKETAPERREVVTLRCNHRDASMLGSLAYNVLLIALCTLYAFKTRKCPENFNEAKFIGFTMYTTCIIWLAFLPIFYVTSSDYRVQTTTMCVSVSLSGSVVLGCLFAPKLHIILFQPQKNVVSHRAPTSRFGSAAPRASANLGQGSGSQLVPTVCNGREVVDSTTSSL
The experiment in a line: [35S]GTPγS binding to mouse cortex. Particulars: glutamate EC20 (1 μM) + SAR218645. It is filed as biochemical. On the procedure: The assay was performed in 96-well filtration plates in 250 μl total volume. […] For termination of the reaction, the plate was filtered and dried prior to adding 50 μl Microscint 40, and counted on the 1450 TopCount Microbeta Counter. EC50 were calculated using 4-parameter curve fitting.
In general terms: GTPγS is a poorly hydrolysed GTP analogue; its binding reports G protein activation.

Data set [2] concerns CD-1 mice. In words: LY404039-induced turning behavior. It is filed as in vivo. Particulars: LY341495 0.3 mg/kg ip; P < 0.001. On the procedure:
Under light restraint, a single unilateral intracortical infusion of the selective mGluR2/3 receptor agonist, LY404039, was performed in CD-1 mice (25–30 g at arrival). An injection point was assessed using the eyes and back of the skull as landmarks. Immediately following the application of LY404039, the observation period began. The number of contralateral turns elicited in a 5 min period was recorded. SAR218645 was administered orally 60 min before infusion of LY404039 and the potentiation of the turning behavior was noted. The selective mGluR2/3 receptor antagonist, LY341495, was administered ip 90 min prior to infusion of LY404039. Statistical analysis was performed using Kruskal Wallis test followed by a Wilcoxon two-tailed comparison. Ten animals per group were used.

Consider `COc1cccc([C@H](O)C2CCN(CCc3ccc(F)cc3)CC2)c1OC` [volinanserin, reference compound], for which the “effect on DOI-induced head twitches (reference)” value with CD-1 mice [1] is reported as “inhibited”.
As for `CN1C(=O)CN=C(c2ccccc2)c2cc(Cl)ccc21` [Diazepam, reference compound], the Tonic seizures with OF1 mice worked out at 0%.
On rat mGluR3, `N[C@@H](CCC(=O)O)C(=O)O` [Glutamate, L-glutamatic acid, reference compound] showed an inhibition constant Ki of 400 nM. For the same compound, the “maximal binding, glutamate alone” value on rat mGluR2 (absence of SAR218645, Fig. 5B) is 108%.
Consider `N[C@@]1(C(=O)O)CS(=O)(=O)[C@H]2[C@H](C(=O)O)[C@H]21` [LY404039, (-)-(1R,4S,5S,6S)-4-amino-2-sulfonylbicyclo[3.1.0]hexane-4,6-dicarboxylic acid, reference compound], for which the Ki is 901 nM at rat mGluR3 and 462 nM at rat mGluR2 (Fig. 5A).
In the case of `O=C(Oc1ccc(Br)cc1)N1CCN2CCC1CC2` [SSR180711, reference compound], the “effect on amphetamine-disrupted auditory gating (S2/S1 ratio)” value in the data set on Sprague-Dawley rats is recorded as “attenuated amphetamine-induced disrupted gating”.
Turning to `N[C@](CC1c2ccccc2Oc2ccccc21)(C(=O)O)[C@H]1C[C@@H]1C(=O)O` [LY341495, reference compound], on native mouse mGluR2, the “antagonism of the SAR218645 potentiation” value is given as “blocked”. For the same compound, in the data set with CD-1 mice [2], the “antagonism of the effect of SAR218645 (10 mg/kg) on turning” value is reported as “blocked”.
